pIC50: −log10 of the molar value.
Key:
[1] = test system: BaF3-FL KIT D816V or BaF3-FL KIT V560G/D816V cell line; assay: Cell-based assays of c-Kit mutant kinase activity (cell growth, ATPlite); conditions: at least one of the c-kit cell assays of Example 26
Summary of the method: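 IC50 derived from ATP-content luminescence (ATPlite) after three-day compound exposure at 37° C., 5% CO2. Cells: BaF3 rendered growth-dependent on full-length human KIT D816V or V560G/D816V, 1×10^4 per well, RPMI plus 10% FBS; 8 points, 1:3 steps, maximum 10 μM final, 0.2% DMSO.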

c-kit kinase = c-kit kinase (Homo sapiens (Human), UniProt P10721); assay: c-Kit biochemical assay (AlphaScreen); conditions: c-kit biochemical inhibitory activity
Summary of the method: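 AlphaScreen of biotin-(E4Y)3 (100 nM) phosphorylation by c-kit (0.1 ng) in HEPES pH 7.2, Mg/Mn, 10 μM ATP, 5% DMSO, 1 h at room temperature; variant uses 100 μM ATP, 30 nM biotin-(E4Y)10, 1 ng enzyme. PY20 acceptor/streptavidin donor signal versus 8-point concentration gives IC50.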

Sequence of c-kit kinase (P10721 26-976): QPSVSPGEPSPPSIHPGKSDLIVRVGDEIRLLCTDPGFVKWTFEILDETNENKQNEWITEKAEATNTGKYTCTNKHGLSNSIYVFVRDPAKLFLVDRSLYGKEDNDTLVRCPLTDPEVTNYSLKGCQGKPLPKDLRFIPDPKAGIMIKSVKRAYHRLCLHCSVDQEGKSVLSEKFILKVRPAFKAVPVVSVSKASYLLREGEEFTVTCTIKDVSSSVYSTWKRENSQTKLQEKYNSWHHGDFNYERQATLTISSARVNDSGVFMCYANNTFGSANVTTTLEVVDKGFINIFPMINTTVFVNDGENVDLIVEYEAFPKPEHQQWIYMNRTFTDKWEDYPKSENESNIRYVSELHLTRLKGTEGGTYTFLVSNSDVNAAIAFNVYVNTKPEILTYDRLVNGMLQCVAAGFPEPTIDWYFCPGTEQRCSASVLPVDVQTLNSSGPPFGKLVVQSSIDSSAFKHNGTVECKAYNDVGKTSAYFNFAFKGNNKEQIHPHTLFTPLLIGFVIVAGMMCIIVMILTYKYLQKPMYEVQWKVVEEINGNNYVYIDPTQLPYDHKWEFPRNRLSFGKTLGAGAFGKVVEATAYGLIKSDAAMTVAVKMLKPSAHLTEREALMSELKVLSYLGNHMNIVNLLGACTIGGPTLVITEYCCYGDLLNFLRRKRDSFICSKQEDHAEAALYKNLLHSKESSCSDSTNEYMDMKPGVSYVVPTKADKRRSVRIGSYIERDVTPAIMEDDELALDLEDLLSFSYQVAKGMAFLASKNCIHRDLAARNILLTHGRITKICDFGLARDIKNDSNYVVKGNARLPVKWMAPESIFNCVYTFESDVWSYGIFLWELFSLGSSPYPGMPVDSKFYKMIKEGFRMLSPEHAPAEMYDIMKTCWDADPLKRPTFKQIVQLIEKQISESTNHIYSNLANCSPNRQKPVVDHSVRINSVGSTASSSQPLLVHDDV

Structure (SMILES) | pIC50 [1] | IC50 (c-kit kinase) [µM]
O=C(Nc1cnc2[nH]c(-c3ccccc3)cc2c1)c1[nH]ncc1Br [P-2005, 4-bromo-N-(2-phenyl-1H-pyrrolo[2,3-b]pyridin-5-yl)-1H-pyrazole-5-carboxamide] | > 5.00 | 1 to 10
Cc1n[nH]c(C(=O)Nc2cnc3[nH]c(-c4ccccc4)cc3c2)c1C [P-2007, 3,4-dimethyl-N-(2-phenyl-1H-pyrrolo[2,3-b]pyridin-5-yl)-1H-pyrazole-5-carboxamide] | > 5.00 | 0.0001 to 1
Cc1[nH]nc(C(=O)Nc2cnc3[nH]c(-c4ccc(N5CCOCC5)cc4)cc3c2)c1C [P-2059, 4,5-dimethyl-N-[2-(4-morpholinophenyl)-1H-pyrrolo[2,3-b]pyridin-5-yl]-1H-pyrazole-3-carboxamide] | > 5.00 | 0.0001 to 1
Cc1n[nH]c(C(=O)Nc2cnc3[nH]c(C4=CCN(C(=O)C5CC5)C4)cc3c2)c1Cl [P-2060, 4-chloro-N-[2-[1-(cyclopropanecarbonyl)-2,5-dihydropyrrol-3-yl]-1H-pyrrolo[2,3-b]pyridin-5-yl]-3-methyl-1H-pyrazole-5-carboxamide] | > 5.00 | 0.0001 to 1
CC(=O)N1CC=C(c2cc3cc(NC(=O)c4[nH]nc(C)c4Cl)cnc3[nH]2)CC1 [P-2061, N-[2-(1-acetyl-3,6-dihydro-2H-pyridin-4-yl)-1H-pyrrolo[2,3-b]pyridin-5-yl]-4-chloro-3-methyl-1H-pyrazole-5-carboxamide] | > 5.00 | 0.0001 to 1
Cc1n[nH]c(C(=O)Nc2cnc3[nH]c(C4=CCN(C(=O)N5CCOCC5)C4)cc3c2)c1Cl [P-2062, 4-chloro-3-methyl-N-[2-[1-(morpholine-4-carbonyl)-2,5-dihydropyrrol-3-yl]-1H-pyrrolo[2,3-b]pyridin-5-yl]-1H-pyrazole-5-carboxamide] | > 5.00 | 0.0001 to 1
Cc1n[nH]c(C(=O)Nc2cnc3[nH]c(-c4cccc(N(C)C)c4)cc3c2)c1C [P-2064, N-[2-[3-(dimethylamino)phenyl]-1H-pyrrolo[2,3-b]pyridin-5-yl]-3,4-dimethyl-1H-pyrazole-5-carboxamide] | > 5.00 | 0.0001 to 1
Cc1n[nH]c(C(=O)Nc2cnc3[nH]c(-c4c(C)noc4C)cc3c2)c1C [P-2065, N-[2-(3,5-dimethylisoxazol-4-yl)-1H-pyrrolo[2,3-b]pyridin-5-yl]-3,4-dimethyl-1H-pyrazole-5-carboxamide] | > 5.00 | 1 to 10
CNC(=O)c1ccc(-c2cc3cc(NC(=O)c4[nH]nc(C)c4C)cnc3[nH]2)cc1 [P-2067, 3,4-dimethyl-N-[2-[4-(methylcarbamoyl)phenyl]-1H-pyrrolo[2,3-b]pyridin-5-yl]-1H-pyrazole-5-carboxamide] | > 5.00 | 1 to 10
Cc1[nH]nc(C(=O)Nc2cnc3[nH]c(-c4ccnc(N5CCN(C)CC5)c4)cc3c2)c1C [P-2069, 4,5-dimethyl-N-[2-[2-(4-methylpiperazin-1-yl)-4-pyridyl]-1H-pyrrolo[2,3-b]pyridin-5-yl]-1H-pyrazole-3-carboxamide] | > 5.00 | 1 to 10
Cc1[nH]nc(C(=O)Nc2cnc3[nH]c(-c4cccc(N5CCOCC5)c4)cc3c2)c1C [P-2070, 4,5-dimethyl-N-[2-(3-morpholinophenyl)-1H-pyrrolo[2,3-b]pyridin-5-yl]-1H-pyrazole-3-carboxamide] | > 5.00 | 1 to 10
Cc1n[nH]c(C(=O)Nc2cnc3[nH]c(C4=CCN(C(=O)CN5CCOCC5)CC4)cc3c2)c1C [P-2073, 3,4-dimethyl-N-[2-[1-(2-morpholinoacetyl)-3,6-dihydro-2H-pyridin-4-yl]-1H-pyrrolo[2,3-b]pyridin-5-yl]-1H-pyrazole-5-carboxamide] | > 5.00 | 1 to 10
Cc1n[nH]c(C(=O)Nc2cnc3[nH]c(C4=CCN(C(=O)C(O)CO)CC4)cc3c2)c1C (stereo not drawn) [P-2074, N-[2-[1-(2,3-dihydroxypropanoyl)-3,6-dihydro-2H-pyridin-4-yl]-1H-pyrrolo[2,3-b]pyridin-5-yl]-3,4-dimethyl-1H-pyrazole-5-carboxamide] | > 5.00 | 0.0001 to 1
Cc1n[nH]c(C(=O)Nc2cnc3[nH]c(-c4cccc(N5CCCC5)c4)cc3c2)c1C [P-2079, 3,4-dimethyl-N-[2-(3-pyrrolidin-1-ylphenyl)-1H-pyrrolo[2,3-b]pyridin-5-yl]-1H-pyrazole-5-carboxamide] | > 5.00 | 1 to 10
Cc1n[nH]c(C(=O)Nc2cnc3[nH]c(C4=CCC(N)CC4)cc3c2)c1C (stereo not drawn) [P-2080, N-[2-(4-aminocyclohexen-1-yl)-1H-pyrrolo[2,3-b]pyridin-5-yl]-3,4-dimethyl-1H-pyrazole-5-carboxamide] | > 5.00 | 1 to 10
Cc1n[nH]c(C(=O)Nc2cnc3[nH]c(-c4ccc(C#N)c(N5CCOCC5)c4)cc3c2)c1C [P-2081, N-[2-(4-cyano-3-morpholino-phenyl)-1H-pyrrolo[2,3-b]pyridin-5-yl]-3,4-dimethyl-1H-pyrazole-5-carboxamide] | > 5.00 | 1 to 10
Cc1n[nH]c(C(=O)Nc2cnc3[nH]c(-n4cccn4)cc3c2)c1C [P-2112, 3,4-dimethyl-N-(2-pyrazol-1-yl-1H-pyrrolo[2,3-b]pyridin-5-yl)-1H-pyrazole-5-carboxamide] | > 5.00 | 1 to 10
Cc1cc(C(=O)Nc2cnc3[nH]c(-n4cccn4)cc3c2)[nH]n1 [P-2116, 3-methyl-N-(2-pyrazol-1-yl-1H-pyrrolo[2,3-b]pyridin-5-yl)-1H-pyrazole-5-carboxamide] | > 5.00 | 10 to 200
Cc1n[nH]c(C(=O)Nc2cnc3[nH]c(-c4cccc(N5CCN(C(=O)C6CC6)CC5)c4)cc3c2)c1C [P-2118, N-[2-[3-[4-(cyclopropanecarbonyl)piperazin-1-yl]phenyl]-1H-pyrrolo[2,3-b]pyridin-5-yl]-3,4-dimethyl-1H-pyrazole-5-carboxamide] | > 5.00 | 10 to 200
Cc1n[nH]c(C(=O)Nc2cnc3sc(-c4ccccc4)nc3c2)c1C [P-2144, 3,4-dimethyl-N-(2-phenylthiazolo[5,4-b]pyridin-6-yl)-1H-pyrazole-5-carboxamide] | > 5.00 | 1 to 10
Cc1n[nH]c(C(=O)Nc2cnc3[nH]c(-c4ccc(C(=O)NC5CC5)cc4)cc3c2)c1C [P-2148, N-[2-[4-(cyclopropylcarbamoyl)phenyl]-1H-pyrrolo[2,3-b]pyridin-5-yl]-3,4-dimethyl-1H-pyrazole-5-carboxamide] | > 5.00 | 0.0001 to 1

Reference: patent publication US10301280B2 (Plexxikon Inc., priority 2012, dated 2019)
